# Experimental data: ChEMBL document CHEMBL3507680, “University of Dundee, Gates Library screen for HepG2 cell viability”
# Test: Human HepG2 cell viability assay in 384 well format
# Format: toxicity, cell-based
# Set-up: dose 125 nL, time 70.5 hour; cytotoxicity at 70.5 h: concentration not given beside the values
# Conditions: HepG2 cells, read-out: Inhibition
row,Structure (SMILES),cytotoxicity at 70.5 h [%]
1,Cc1cc(N2CCC(C(=O)NC3CC3)CC2)nc(-c2ccncc2)n1,-7.6
2,CN(C)c1ccc(C(=O)N2CCN(Cc3cscn3)CC2)cn1,-6.24
3,CC(=O)NCC1CCN(c2cc(C)nc(-c3ccncc3)n2)CC1,-10.9
4,COC(=O)C1CCN(c2cc(C)nc(-c3ccncc3)n2)CC1,-8.27
5,Cc1cc(N2CCC(C(=O)N(C)C)CC2)nc(-c2ccncc2)n1,3.79
6,CCN(Cc1cccc2c1OCO2)C(=O)Nc1cn[nH]c1,-5.23
7,Cc1ccccc1OCC(O)CN1CCC(Cn2cccn2)CC1 (configuration not stated),2.37
8,N#Cc1ccc(OCC(O)CN2CCC(Cn3cccn3)CC2)cc1 (configuration not stated),-3.6
9,CCC(O)CN1CCN(C(=O)Cc2cc(C)ccc2OC)CC1 (configuration not stated),-1.58
10,CCc1ccsc1C(=O)N1CCN(CC(C)O)CC1 (configuration not stated),-2.62
11,CCn1cc(NC(=O)Nc2ccc3c(c2)OCCO3)cn1,-5.76
12,Cc1nc(CN(C)C2CCN(CCCc3ccccc3)C2)no1 (configuration not stated),-2.23
13,COc1c(CNC2CCc3cc(F)ccc32)c(C(C)C)nn1C (configuration not stated),16.8
14,CC(c1cccc(S(N)(=O)=O)c1)N(C)CCOC(C)(C)C (configuration not stated),-2.34
15,CCC(O)CN1CCN(C(=O)Cc2ccc(OC)cc2OC)CC1 (configuration not stated),0.587
16,Cc1cnn(CCNCc2nnc(-c3ccccc3)o2)c1,-1.2
17,Cc1cnn(CC2CCCN2CC(=O)Nc2cc(C)no2)c1 (configuration not stated),-3.79
18,CC(c1cccc(S(N)(=O)=O)c1)N(C)CCCOc1ccccc1 (configuration not stated),-4.57
19,Cc1cccc(C(=O)N2CCCN(Cc3cscn3)CC2)c1,-4.03
20,Cc1cnc(CN2CCC(N(C)Cc3noc(C4CC4)n3)C2)o1 (configuration not stated),11.7
21,CCN1CCN(CCNC(=O)c2sc(C(C)C)nc2C)CC1,0.965
22,O=C(c1ccc2c(c1)OCO2)N1CCCC(n2cccn2)C1 (configuration not stated),-6.41
23,CC(O)CN1CCC(CNCc2cccc(C(N)=O)c2)CC1 (configuration not stated),-4
24,c1cnc(-c2nc(CN3CCCC(Cn4cncn4)C3)cs2)nc1 (configuration not stated),-11

row,Structure (SMILES),cytotoxicity at 70.5 h [%]
1,Cc1csc(C2CCCN(C(=O)c3cc(Cl)c[nH]3)C2)n1 (configuration not stated),-0.903
2,O=C(c1cccc(N2CCCC2=O)c1)N1CCCC(n2cncn2)C1 (configuration not stated),-8.04
3,Cc1csc(C2CCCN(C(=O)c3cnc[nH]3)C2)n1 (configuration not stated),-0.708
4,CCCn1nc2c(cc1=O)CN(CCS(C)(=O)=O)CC2,9.12
5,CCOc1cc(C)ccc1NC(=O)N(C)Cc1cnn(C)c1,-3.49
6,COc1cc(CNCc2c(C)nn(C)c2N(C)C)ccn1,-1.56
7,CCN1CCC(NC(=O)CN2CCCC2Cn2nc(C)cc2C)CC1 (configuration not stated),-9.53
8,O=C(CCN1CCCC1C1CCCCC1)N1CCc2sccc2C1 (configuration not stated),2.92
9,COCCOc1ccccc1C(=O)N1CCCCC1c1nccs1 (configuration not stated),50.2
10,CCCn1nc2c(cc1=O)CN(CCCN1CCCC1=O)CC2,7.69
11,COCc1cccc(C(=O)N2CCCCC2c2nccs2)c1 (configuration not stated),-8.81
12,CCCn1nc2c(cc1=O)CN(CCCS(N)(=O)=O)CC2,3.74
13,O=C(CCC(=O)N1CCCC1c1cccs1)N1CCc2sccc2C1 (configuration not stated),2.92
14,CC(NC(=O)CCCOc1ccccc1)c1nnc2n1CCCCC2 (configuration not stated),-20.9
15,CCc1cnc(CN2CCCC2c2noc(C3CC3)n2)o1 (configuration not stated),-11.3
16,CC(C)c1nc2n(n1)CC(NCc1nnc(C(C)C)o1)CC2 (configuration not stated),-19.6
17,COc1cccc(COCC(=O)N2CCCC(n3ccnc3)C2)c1 (configuration not stated),-11.9
18,FC(F)(F)Cc1noc(CN2CCCC2c2noc(C3CC3)n2)n1 (configuration not stated),-8.5
19,O=C(COCc1ccccc1)N1CCCC(n2cncn2)C1 (configuration not stated),-20.7
20,COc1cccc(C(=O)N2CCCC(c3cc(C)[nH]n3)C2)c1OC (configuration not stated),-17.6
21,Cc1cnn(CC2CCCCN2Cc2nc(-c3ccoc3)no2)c1 (configuration not stated),-6.01
22,COc1cc(C(=O)N2CCCC(CNS(C)(=O)=O)C2)cc(OC)c1C (configuration not stated),-13.5
23,COc1c(CNC2CCc3c(F)cccc32)c(C)nn1C (configuration not stated),-7.24
